In patent publication US20240156817A1, “TREATMENTS FOR PAIN” (Sevenless Therapeutics Limited, priority 2021, published 2024):

Legend:
[1] = system: Nerve Growth Factor (NGF) stimulated phospho-ERK1/2 activation in PC-12 cells; test: Inhibition of NGF stimulated pERK1/2 activation in the PC-12 cell line (HTRF), alone and combined with anti-NGF; assay type: cell-based, rat
Description: Homogeneous Time-Resolved Fluorescence (HTRF) assay:
Reagents from the HTRF commercial kit (Cisbio) were prepared according to the manufacturer's instructions.
PC-12 cells were isolated from routine cellular culture and plated at an appropriate cell density in 384-well plates (typically 25,000 cells per well) for 24 hours under serum-starved conditions. […] Following the 30-minute compound pre-incubation, PC-12 cells were treated with NGF (titrations of NGF from 250 ng/mL to 10 ng/mL were tested), and subsequently incubated for a 5-minute period (37° C./5% CO2). […] A 2-hour incubation at room temperature was performed prior to fluorescence signal determination using a microplate reader (PHERAstar FSX, BMG Labtech).
Percentage inhibition values were calculated per compound concentration by normalising the sample data to the high and low controls used within each plate (+/−25 ng/mLNGF respectively). […]
PC-12 cells were isolated from routine cellular culture and plated at an appropriate cell density (typically 25,000 cells per well) in 384-well plates for 24 hours under serum-starved conditions. […] A 2-hour incubation at room temperature was performed prior to fluorescence signal being measured in a microplate reader (PHERAstar FSX, BMG Labtech). […]

[2] = system: CFA-(Complete Freunds Adjuvant) induced hypersensitivity; test: CFA-induced hypersensitivity using weight-bearing in the C57BI6 mouse; assay type: in vivo
Description: On 3 days before CFA dose: habituation to WB apparatus, baseline readings are taken once. 24 h before dosing: intraplantar injection of 20 μl of CFA 1.5 mg/ml to the left hind paw. 1 h before dosing: post-CFA readings are taken for WB. […] Naive animals distribute their body weight equally between the two hind paws. However, when a painful insult is given to one hindpaw (i.e., sciatic nerve constriction or CFA intraplantar injection), the weight is re-distributed so that less weight is put on the affected paw (with a decrease in weight bearing on the injured paw). Animals were placed in the incapacitance tester (Linton Instruments, UK) with the hind paws on separate sensors. The average forces exerted by the left and the right hindlimb were recorded over 2 s. Weight-bearing readings were taken for both left and right hind paws. The ratio ipsilateral/contralateral was calculated and expressed in % (mean±s.e.m.). Statistics: Two-Way RM Mixed model (treatment×repeated factor: time) (InVivoStat v3.7.0.0)

[3] = system: pain models (knee osteoarthritis pain, arthritic joint, auto-immune arthritis); settings: rats as printed; cited papers say mouse; cited from earlier work

Q: Which results are given for “Tanezumab: an anti-NGF antibody, pain drug candidate”?
A: efficacy ([1]; Tanezumab at a concentration of 50 nM): 90%; efficacy ([1]; tanezumab at a concentration of 200 nM): 100%; weight-bearing, ratio ipsilateral/contralateral (mean) ([2]; Tanezumab 3 mg/kg, DRUG TREATED 0.5 h (approx)): 82.54%; weight-bearing, ratio ipsilateral/contralateral (mean) ([2]; Tanezumab 3 mg/kg, DRUG TREATED 8.5 h (approx)): 94.11%; weight-bearing, ratio ipsilateral/contralateral (mean) ([2]; Tanezumab 3 mg/kg, DRUG TREATED 24.5 h (approx)): 89.88%; weight-bearing, ratio ipsilateral/contralateral (mean) ([2]; Tanezumab 3 mg/kg, DRUG TREATED 32.5 h (approx)): 84.25%; weight-bearing, ratio ipsilateral/contralateral (mean) ([2]; combination study, Tanezumab 3 mg/kg i.p. alone, DRUG TREATED (d2 PM)): 99.84%; dose at which efficacy is shown (scientific literature) [3]: 10 mg/kg
